Experiments:
786-O VHL^− cells [1] = experiment: FACS cell cycle analysis (Propidium Iodide); assay type: cell-based, human; conditions: hypoxic conditions, 48 h
Procedure: FIG. 6: A) FACS analysis of 786-O VHL^− cells treated for 48 h with indicated compounds under hypoxic conditions and labeled with Propidium Iodide for cell cycle analysis.

786-O VHL^− cells [2] = experiment: 3D assay on Multicellular Tumor Spheroids (Propidium Iodide); assay type: cell-based, human; conditions: 5 μM, 48 h, P≤0.0001 Kruskal-Wallis
Procedure: For 3-D culture (spheroids), the spheroids were prepared in 96-wells U-bottom tissue culture plate with low evaporation Lid (Microtest™, Becton Dickinson Labware, San Jose, Calif.) coated with 20 mg/mL of poly-HEMA per well to allow the formation of spheroids. Renal cancer cells 786-O WT, 786-O pBABE and 786-O VHL (taken from exponentially growing cultures) were seeded at a density of […] in RPMI supplemented with 10% FCS. 90 μL (9×10^2 cells) of these cell suspensions were deposed in each well then tissue culture plates were incubated at 37° C. and 5% CO2 for 3 days before drug treatment for further 48 h.
Three days pre-formed spheroids were treated with the different drugs at indicated concentrations during 48 H. After that, Hoechst (200 ng/mL) and Propidium Iodide (1 μg/mL) were added as markers of cell nuclei and cell death respectively. Images of IP and Hoechst fluorescence were acquired at the CMBA platform using the automated microscope ArrayScanVTI (ThermoScientific). ArrayScanVTI is a fluorescent microscope which allows the rapid and fully automated acquisition of images of fixed or live cells in 96-well microplates at different magnifications. Dedicated softwares are used to automatically perform High Content image Analysis like spheroid area measurement, fluorescent intensity measurement of each staining and counting of the number of dead cells.

786-O VHL^− cells [3] = experiment: Viability assay (PrestoBlue) / high-throughput drug-gene screening; assay type: cell-based, human; conditions: for sensitivity of cells to ATM inhibitor after shRNA-mediated knockdown of CK2α (cell viability): shCK2α vs shCTRL 786-O cells, 48 h
Procedure: Cytotoxicity was measured using PrestoBlue assay (Invitrogen, Carlsbad, Calif.). Cell lines were seeded in a 96-well microtiter plate at a concentration of 5×10^4 cells/mL. Cells were allowed to attach for 24 hrs at 37° C. and 5% CO2. The cells were exposed to the negative control DMSO or positive drug CX-4945 at 20 μM for 48 h or the other molecules at indicated concentrations. […] DMSO was used as a negative control and 20 μM CX-4945 as a positive control. Plates were further cultured for 48 hrs. Cells were labeled with vital Hoechst (33342) together with Prestoblue and the fluorescence reading was made through the Tecan's Infinite M100 reader. See Flow chart in FIG. 1. Raw data were first imported into the database of the home-made analysis software TAMIS, used for analysis. […] Finally, for each compound X/targeted-shRNA Y pair and assay, the activity percentage obtained with the compound X/Ctrl-shRNA was taken from the compound X/targeted-shRNA Y activity percentage in order to identify compound X/targeted-shRNA Y pair showing additive, or even synergistic, effect compared to compound X/Ctrl-shRNA pair.

ATM = target: T1, ATM (Homo sapiens, UniProt Q13315); experiment: Western blot of ATM phosphorylation in 786-O cells; assay type: cell-based; conditions: 786-O VHL^+/−, 1.5% O2, 5 μM, 48 h
T1 construct: endogenous in cells; host or cells: 786-O cells (VHL- and VHL+), cultured under 1.5% O2
Procedure: Blotted membranes were blocked during 1 h at room temperature with saturation buffer (1% BSA in TBST), and then incubated with primary antibody diluted in saturation buffer, during 1 h 30. Secondary antibodies were added for 1 hour.

T1 sequence (Q13315 whole entry): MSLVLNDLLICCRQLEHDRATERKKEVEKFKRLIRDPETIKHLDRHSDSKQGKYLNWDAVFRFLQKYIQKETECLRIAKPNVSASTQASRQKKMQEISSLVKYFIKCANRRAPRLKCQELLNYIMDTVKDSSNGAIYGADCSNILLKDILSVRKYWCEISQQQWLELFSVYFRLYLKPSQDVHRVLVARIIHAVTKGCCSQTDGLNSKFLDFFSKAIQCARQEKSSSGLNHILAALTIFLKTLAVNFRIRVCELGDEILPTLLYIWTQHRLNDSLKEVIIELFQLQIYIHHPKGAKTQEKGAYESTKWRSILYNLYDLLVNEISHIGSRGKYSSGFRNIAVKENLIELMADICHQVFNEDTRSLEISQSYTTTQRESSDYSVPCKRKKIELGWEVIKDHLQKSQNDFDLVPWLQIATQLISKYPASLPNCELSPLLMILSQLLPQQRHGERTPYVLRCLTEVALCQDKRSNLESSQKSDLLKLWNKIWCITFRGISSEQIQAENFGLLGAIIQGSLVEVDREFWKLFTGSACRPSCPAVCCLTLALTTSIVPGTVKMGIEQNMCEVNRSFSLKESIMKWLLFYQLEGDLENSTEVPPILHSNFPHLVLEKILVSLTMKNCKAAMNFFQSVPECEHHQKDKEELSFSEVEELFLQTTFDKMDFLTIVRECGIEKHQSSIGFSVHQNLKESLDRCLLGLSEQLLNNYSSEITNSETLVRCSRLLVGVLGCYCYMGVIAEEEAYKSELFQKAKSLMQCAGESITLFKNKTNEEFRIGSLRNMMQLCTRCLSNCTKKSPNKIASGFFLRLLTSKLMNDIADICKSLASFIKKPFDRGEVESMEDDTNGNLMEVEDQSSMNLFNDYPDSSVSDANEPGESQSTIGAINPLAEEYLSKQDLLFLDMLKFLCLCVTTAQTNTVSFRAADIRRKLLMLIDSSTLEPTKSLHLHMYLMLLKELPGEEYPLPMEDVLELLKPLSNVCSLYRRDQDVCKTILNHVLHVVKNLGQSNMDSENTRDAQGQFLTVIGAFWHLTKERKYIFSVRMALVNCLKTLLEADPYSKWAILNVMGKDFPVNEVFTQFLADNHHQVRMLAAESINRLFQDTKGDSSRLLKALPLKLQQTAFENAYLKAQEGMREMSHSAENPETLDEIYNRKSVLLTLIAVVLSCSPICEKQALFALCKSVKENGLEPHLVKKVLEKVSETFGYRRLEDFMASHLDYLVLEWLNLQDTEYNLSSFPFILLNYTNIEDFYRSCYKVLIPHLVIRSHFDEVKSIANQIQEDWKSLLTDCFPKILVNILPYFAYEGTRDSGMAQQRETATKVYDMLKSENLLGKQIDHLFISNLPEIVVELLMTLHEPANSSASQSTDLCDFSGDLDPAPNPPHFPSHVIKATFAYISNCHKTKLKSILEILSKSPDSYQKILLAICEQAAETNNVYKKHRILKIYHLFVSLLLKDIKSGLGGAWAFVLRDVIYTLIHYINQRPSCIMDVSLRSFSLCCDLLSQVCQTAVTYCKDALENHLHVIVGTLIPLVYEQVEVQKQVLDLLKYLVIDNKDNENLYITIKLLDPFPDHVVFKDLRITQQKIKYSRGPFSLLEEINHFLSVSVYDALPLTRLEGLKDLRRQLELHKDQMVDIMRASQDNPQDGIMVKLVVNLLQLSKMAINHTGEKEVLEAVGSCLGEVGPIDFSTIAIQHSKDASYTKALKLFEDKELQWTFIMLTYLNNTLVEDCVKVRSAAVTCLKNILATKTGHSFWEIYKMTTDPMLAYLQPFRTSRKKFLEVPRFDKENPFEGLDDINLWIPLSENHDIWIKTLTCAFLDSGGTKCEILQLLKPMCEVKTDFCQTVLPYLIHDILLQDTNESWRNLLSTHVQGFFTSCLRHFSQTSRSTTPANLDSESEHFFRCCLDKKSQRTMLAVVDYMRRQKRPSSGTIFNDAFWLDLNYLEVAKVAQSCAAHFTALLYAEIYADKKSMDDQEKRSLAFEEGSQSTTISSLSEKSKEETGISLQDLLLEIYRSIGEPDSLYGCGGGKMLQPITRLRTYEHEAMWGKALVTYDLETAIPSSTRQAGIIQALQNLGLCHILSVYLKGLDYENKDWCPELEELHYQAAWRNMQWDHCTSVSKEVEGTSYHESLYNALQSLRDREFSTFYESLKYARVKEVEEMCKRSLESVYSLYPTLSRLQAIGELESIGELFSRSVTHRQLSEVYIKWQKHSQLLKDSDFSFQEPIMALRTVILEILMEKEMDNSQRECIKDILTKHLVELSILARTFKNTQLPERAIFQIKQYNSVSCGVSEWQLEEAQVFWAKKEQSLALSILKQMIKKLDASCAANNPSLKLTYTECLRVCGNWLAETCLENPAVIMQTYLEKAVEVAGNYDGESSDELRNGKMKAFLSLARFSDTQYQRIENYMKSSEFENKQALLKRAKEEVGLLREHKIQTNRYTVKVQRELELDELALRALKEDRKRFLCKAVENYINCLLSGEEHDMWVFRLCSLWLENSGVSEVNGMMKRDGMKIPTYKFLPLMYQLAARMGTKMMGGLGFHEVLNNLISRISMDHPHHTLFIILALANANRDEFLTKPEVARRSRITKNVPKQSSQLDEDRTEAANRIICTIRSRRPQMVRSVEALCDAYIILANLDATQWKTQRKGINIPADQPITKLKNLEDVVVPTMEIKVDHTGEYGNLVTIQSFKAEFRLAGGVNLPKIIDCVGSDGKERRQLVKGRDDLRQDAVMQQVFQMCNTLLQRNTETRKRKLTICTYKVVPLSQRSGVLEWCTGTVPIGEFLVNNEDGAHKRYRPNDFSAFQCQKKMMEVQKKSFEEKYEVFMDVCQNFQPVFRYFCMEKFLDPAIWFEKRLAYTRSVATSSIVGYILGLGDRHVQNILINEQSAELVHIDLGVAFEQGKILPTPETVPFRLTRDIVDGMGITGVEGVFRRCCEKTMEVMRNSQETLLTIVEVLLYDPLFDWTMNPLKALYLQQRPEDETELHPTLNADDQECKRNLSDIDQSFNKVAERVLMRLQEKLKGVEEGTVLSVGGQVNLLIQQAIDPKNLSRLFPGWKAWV

inhibition of ATM (phosphorylation of P-ATM Ser1981) (ATM) | SMILES | effect on G1 phase (786-O VHL^− cells [1]) | cell death in shATM MTS versus vehicle (786-O VHL^− cells [2]) | efficiency of ATM inhibitor compared with KU-55933 (786-O VHL^− cells [3]; 786-O cell viability, with CK2 inhibitors (FIG. 2C)) | sensitivity of cells to ATM inhibitor after shRNA-mediated knockdown of CK2α (cell viability) (786-O VHL^− cells [3]) | cell death in shCK2α MTS versus vehicle (DMSO) (786-O VHL^− cells [2])
– | O=C(O)c1ccc2c(c1)nc(Nc1cccc(Cl)c1)c1ccncc12 [CX-4945, 5-(3-chlorophenylamino)benzo[c][2,6]naphthyridine-8-carboxylic acid] | without effect | Significant difference | – | – | –
clearly inhibited | C[C@@H]1CN(CC(=O)Nc2ccc3c(c2)Cc2cccc(-c4cc(=O)cc(N5CCOCC5)o4)c2S3)C[C@H](C)O1 [KU-60019, 2-((2S,6R)-2,6-dimethylmorpholino)-N-(5-(6-morpholino-4-oxo-4H-pyran-2-yl)-9H-thioxanthen-2-yl)acetamide] | – | – | significantly more efficient | enhanced the sensitivity | Significant difference
– | O=c1cc(-c2cccc3c2Sc2ccccc2S3)oc(N2CCOCC2)c1 [KU-55933, 2-Morpholin-4-yl-6-thianthren-1-yl-pyran-4-one] | – | – | – | enhanced the sensitivity | –

Source: patent US10322133B2, “Synthetic lethal drug combination for treating renal cell carcinoma” (Commissariat a l'Energie Atomique et aux Energies …, priority 2015, dated 2019)
